These are literature values, as cited in patent publication EP2934488B1, “A PHARMACEUTICAL COMPOSITION CONTAINING CANDESARTAN CILEXETIL AND AMLODIPINE” (Adamed Pharma S.A., priority 2012, dated 2014).

Assay in data set [1]: not given
This is another data set of the same source.

For the compound `CCOc1nc2cccc(C(=O)O)c2n1Cc1ccc(-c2ccccc2-c2nnn[nH]2)cc1` [candesartan], where the note is “candesartan included in commercial formulations, estimated”, the candesartan physiologically available was 15-40%. Turning to `CCOC(=O)C1=C(COCCN)NC(C)=C(C(=O)OC)C1c1ccccc1Cl` (racemic) [Amlodipine benzenesulfonate, 3-ethyl 5-methyl (4RS)-2-[(2-amino-ethoxy)-methyl]-6-methyl-1,4-dihydropyridine-3,5-dicarboxylate], the solubility in water result in data set [1] is “slightly soluble in water”. For the same compound, the absolute bioavailability (in vivo) was 64-90%.
